# Source: US12338220B2, “Antiviral pyrazolopiridinone compounds” (Novartis AG, priority 2019, dated 2025)
# Like-named read-outs stand apart in the source and are kept apart here.
# Tests used:
# CMV-polymerase = CMV-polymerase (Human cytomegalovirus (strain AD169) (HHV-5) (Human herpesvirus 5), UniProt P08546); test: biochemical
# CMV = test: microbe, parasite or virus in culture; type: cell-based; details: Human betaherpesvirus 5, 72 h, read-out: CMV-Luc Cellular EC50, NN-NHDF cells, MOI 1, 72 hrs
# [1] = read-out: CMV-polymerase Biochemical IC50
Structure (SMILES),IC50 (CMV-polymerase; [1]) [nM],EC50 (CMV) [nM],IC50 (CMV-polymerase; CMV-polymerase Biochemical IC50) [nM]
"CN(CCO)S(=O)(=O)C1(CN2CCc3c(C(=O)NCc4ccc(Cl)cc4)nn(C)c3C2=O)CC1 [Example 144, N-(4-Chlorobenzyl)-6-((1-(N-(2-hydroxyethyl)-N-methylsulfamoyl)cyclopropyl)methyl)-1-methyl-7-oxo-4,5,6,7-tetrahydro-1H-pyrazolo[3,4-c]pyridine-3-carboxamide]",4,44,–
"Cn1nc(C(=O)NCc2ccc(C#N)cc2)c2c1C(=O)N(CC1(S(=O)(=O)NCCO)CC1)CC2 [Example 145, N-(4-Cyanobenzyl)-6-((1-(N-(2-hydroxyethyl)sulfamoyl)cyclopropyl)methyl)-1-methyl-7-oxo-4,5,6,7-tetrahydro-1H-pyrazolo[3,4-c]pyridine-3-carboxamide]",14,303,–
"CN(CCO)S(=O)(=O)C1(CN2CCc3c(C(=O)NCc4ccc(C#N)cc4)nn(C)c3C2=O)CC1 [Example 146, N-(4-Cyanobenzyl)-6-((1-(N-(2-hydroxyethyl)-N-methylsulfamoyl)cyclopropyl)methyl)-1-methyl-7-oxo-4,5,6,7-tetrahydro-1H-pyrazolo[3,4-c]pyridine-3-carboxamide]",3,61,–
"CN(C(CO)CO)S(=O)(=O)C1(CN2CCc3c(C(=O)NCc4ccc(C#N)cc4)nn(C)c3C2=O)CC1 [Example 147, N-(4-Cyanobenzyl)-6-((1-(N-(1,3-dihydroxypropan-2-yl)-N-methylsulfamoyl)cyclopropyl)methyl)-1-methyl-7-oxo-4,5,6,7-tetrahydro-1H-pyrazolo[3,4-c]pyridine-3-carboxamide]",30,604,–
"Cn1nc(C(=O)NCc2ccc(Cl)cc2)c2c1C(=O)N(CC1(S(=O)(=O)NC(C)(C)CO)CC1)CC2 [Example 148, N-(4-Chlorobenzyl)-6-((1-(N-(1-hydroxy-2-methylpropan-2-yl)sulfamoyl)cyclopropyl)methyl)-1-methyl-7-oxo-4,5,6,7-tetrahydro-1H-pyrazolo[3,4-c]pyridine-3-carboxamide]",15,139,–
"Cn1nc(C(=O)NCc2ccc(C#N)cc2)c2c1C(=O)N(CC1(S(=O)(=O)NC(C)(C)CO)CC1)CC2 [Example 149, N-(4-Cyanobenzyl)-6-((1-(N-(1-hydroxy-2-methylpropan-2-yl)sulfamoyl)cyclopropyl)methyl)-1-methyl-7-oxo-4,5,6,7-tetrahydro-1H-pyrazolo[3,4-c]pyridine-3-carboxamide]",12,166,–
"Cn1nc(C(=O)NCc2ccc(Cl)cc2)c2c1C(=O)N(CC1(S(=O)(=O)N3CC(O)C3)CC1)CC2 [Example 150, N-(4-Chlorobenzyl)-6-((1-((3-hydroxyazetidin-1-yl)sulfonyl)cyclopropyl)methyl)-1-methyl-7-oxo-4,5,6,7-tetrahydro-1H-pyrazolo[3,4-c]pyridine-3-carboxamide]",6,67,–
"CNS(=O)(=O)C1(CN2CCc3c(C(=O)NCc4ccc(Cl)cc4)nn(C)c3C2=O)CC1 [Example 151, N-(4-Chlorobenzyl)-1-methyl-6-((1-(N-methylsulfamoyl)cyclopropyl)methyl)-7-oxo-4,5,6,7-tetrahydro-1H-pyrazolo[3,4-c]pyridine-3-carboxamide]",8,64,–
"Cn1nc(C(=O)NCc2ccc(Cl)cc2)c2c1C(=O)N(CC1(S(=O)(=O)NCC(C)(C)O)CC1)CC2 [Example 152, N-(4-Chlorobenzyl)-6-((1-(N-(2-hydroxy-2-methylpropyl)sulfamoyl)cyclopropyl)methyl)-1-methyl-7-oxo-4,5,6,7-tetrahydro-1H-pyrazolo[3,4-c]pyridine-3-carboxamide]",30,834,–
"Cn1nc(C(=O)NCc2ccc(Cl)cc2)c2c1C(=O)N(CC1(S(=O)(=O)NC(C)(CO)CO)CC1)CC2 [Example 153, N-(4-Chlorobenzyl)-6-((1-(N-(1,3-dihydroxy-2-methylpropan-2-yl)sulfamoyl)cyclopropyl)methyl)-1-methyl-7-oxo-4,5,6,7-tetrahydro-1H-pyrazolo[3,4-c]pyridine-3-carboxamide]",20,305,–
"Cn1nc(C(=O)NCc2ccc(C#N)cc2)c2c1C(=O)N(CC1(S(=O)(=O)Nc3ccccn3)CC1)CC2 [Example 155, N-(4-cyanobenzyl)-1-methyl-7-oxo-6-((1-(N-(pyridin-2-yl)sulfamoyl)cyclopropyl)methyl)-4,5,6,7-tetrahydro-1H-pyrazolo[3,4-c]pyridine-3-carboxamide]",–,57,2
"Cn1ccc(NS(=O)(=O)C2(CN3CCc4c(C(=O)NCc5ccc(C#N)cc5)nn(C)c4C3=O)CC2)n1 [Example 156, N-(4-Cyanobenzyl)-1-methyl-6-((1-(N-(1-methyl-1H-pyrazol-3-yl)sulfamoyl)cyclopropyl)methyl)-7-oxo-4,5,6,7-tetrahydro-1H-pyrazolo[3,4-c]pyridine-3-carboxamide]",3,100,–
"Cc1cccc(NS(=O)(=O)C2(CN3CCc4c(C(=O)NCc5ccc(C#N)cc5)nn(C)c4C3=O)CC2)n1 [Example 157, N-(4-Cyanobenzyl)-1-methyl-6-((1-(N-(6-methylpyridin-2-yl)sulfamoyl)cyclopropyl)methyl)-7-oxo-4,5,6,7-tetrahydro-1H-pyrazolo[3,4-c]pyridine-3-carboxamide]",2,58,–
"Cn1nc(C(=O)NCc2ccc(Cl)cc2)c2c1C(=O)N(CC1(S(=O)(=O)Nc3ccccn3)CC1)CC2 [Example 158, N-(4-Chlorobenzyl)-1-methyl-7-oxo-6-((1-(N-(pyridin-2-yl)sulfamoyl)cyclopropyl)methyl)-4,5,6,7-tetrahydro-1H-pyrazolo[3,4-c]pyridine-3-carboxamide]",3,37,–
"COc1cccnc1NS(=O)(=O)C1(CN2CCc3c(C(=O)NCc4ccc(C#N)cc4)nn(C)c3C2=O)CC1 [Example 159, N-(4-Cyanobenzyl)-6-((1-(N-(3-methoxypyridin-2-yl)sulfamoyl)cyclopropyl)methyl)-1-methyl-7-oxo-4,5,6,7-tetrahydro-1H-pyrazolo[3,4-c]pyridine-3-carboxamide]",13,298,–
"COc1ccc(C)nc1NS(=O)(=O)C1(CN2CCc3c(C(=O)NCc4ccc(C#N)cc4)nn(C)c3C2=O)CC1 [Example 160, N-(4-Cyanobenzyl)-6-((1-(N-(3-methoxy-6-methylpyridin-2-yl)sulfamoyl)cyclopropyl)methyl)-1-methyl-7-oxo-4,5,6,7-tetrahydro-1H-pyrazolo[3,4-c]pyridine-3-carboxamide]",6,118,–
"Cc1ncccc1NS(=O)(=O)C1(CN2CCc3c(C(=O)NCc4ccc(C#N)cc4)nn(C)c3C2=O)CC1 [Example 161, N-(4-Cyanobenzyl)-1-methyl-6-((1-(N-(2-methylpyridin-3-yl)sulfamoyl)cyclopropyl)methyl)-7-oxo-4,5,6,7-tetrahydro-1H-pyrazolo[3,4-c]pyridine-3-carboxamide]",2,61,–
"COc1ncccc1NS(=O)(=O)C1(CN2CCc3c(C(=O)NCc4ccc(C#N)cc4)nn(C)c3C2=O)CC1 [Example 162, N-(4-Cyanobenzyl)-6-((1-(N-(2-methoxypyridin-3-yl)sulfamoyl)cyclopropyl)methyl)-1-methyl-7-oxo-4,5,6,7-tetrahydro-1H-pyrazolo[3,4-c]pyridine-3-carboxamide]",1,30,–
